The experiment concerns the target T1, Alpha-1A adrenergic receptor (Rattus norvegicus, UniProt P43140).
T1 sequence (P43140 whole entry): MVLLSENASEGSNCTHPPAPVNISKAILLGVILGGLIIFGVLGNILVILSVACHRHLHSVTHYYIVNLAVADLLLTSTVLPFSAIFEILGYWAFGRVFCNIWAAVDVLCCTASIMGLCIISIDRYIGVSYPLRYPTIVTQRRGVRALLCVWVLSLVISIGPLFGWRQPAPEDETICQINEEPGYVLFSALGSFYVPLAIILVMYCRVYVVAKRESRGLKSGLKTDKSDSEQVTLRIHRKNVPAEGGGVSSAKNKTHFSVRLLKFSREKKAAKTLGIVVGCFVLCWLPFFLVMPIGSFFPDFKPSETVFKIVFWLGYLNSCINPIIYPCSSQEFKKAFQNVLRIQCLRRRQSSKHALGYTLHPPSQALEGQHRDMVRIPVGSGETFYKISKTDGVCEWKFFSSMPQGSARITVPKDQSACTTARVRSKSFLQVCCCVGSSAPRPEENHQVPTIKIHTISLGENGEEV

SMILES strings stand for the structures.

As to `c1ccc2c(c1)OCC(C1=NCCN1)O2` (stereo unspecified), the Ki stood at 91 nM.

As a reminder, the Ki is the dissociation constant of the complex between target and ligand, obtained from inhibition or displacement.

The record behind these values is BindingDB's records for doi:10.1007/bf00506193 (1984).
